Broadly, the pIC50 is the IC50 on a negative log10 scale, so that one unit is a factor of ten.

pIC50: −log10 of the molar value. Where a name gives a salt, the structure may show the parent alone.

For experiment [1], the target named is T1, human neurokinin-3 receptors expressed in CHO cell lines (Homo sapiens, UniProt P29371).
T1 sequence (P29371 1-465): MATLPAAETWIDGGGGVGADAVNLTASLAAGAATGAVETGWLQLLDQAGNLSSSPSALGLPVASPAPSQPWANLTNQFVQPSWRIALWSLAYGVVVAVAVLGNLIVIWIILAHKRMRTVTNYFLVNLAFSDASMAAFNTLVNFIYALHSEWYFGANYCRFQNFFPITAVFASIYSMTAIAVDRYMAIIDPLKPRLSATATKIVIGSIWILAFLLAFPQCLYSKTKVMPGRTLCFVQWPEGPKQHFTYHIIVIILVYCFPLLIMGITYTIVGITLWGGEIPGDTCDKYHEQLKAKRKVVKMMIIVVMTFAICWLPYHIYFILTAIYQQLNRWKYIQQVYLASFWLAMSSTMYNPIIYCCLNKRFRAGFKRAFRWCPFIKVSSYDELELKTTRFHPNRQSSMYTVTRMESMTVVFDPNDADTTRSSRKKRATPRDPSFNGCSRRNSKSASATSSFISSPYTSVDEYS
Kind of experiment: biochemical. As to conditions: human NK-3 receptors in CHO cell lines; radioligand [125I]-[Me-Phe7]-NKB; mean of 2-5 separate experiments in duplicate or triplicate; read-out: Binding affinity in hNK-3-CHO IC50.
Procedure: The activity of the compounds of the present invention, as NK3 ligands, is determined by their ability to inhibit the binding of the radiolabelled NK3 ligands, [^125 I]-[Me--Phe^7 ]-NKB or [^3 H]-Senktide, to guinea-pig and human NK3 receptors (Renzetti et at, 1991, Neuropeptide, 18, 104-114; Buell et al, 1992, FEBS, 299(1), 90-95; Chung et al, 1994, Biochem. Biophys. Res. Commun., 198(3), 967-972).
The binding assays utilized allow the determination of the concentration of the individual compound required to reduce by 50% the [^125 I]-[Me--Phe^7 ]-NKB and [^3 H]-Senktide specific binding to NK3 receptor in equilibrium conditions (IC50).
The NK3 -antagonist activity of the compounds of the present invention is determined by their ability to inhibit senktide-induced contraction of the guinea-pig ileum (Maggi et al, 1990, Br. J. Pharmacol., 101, 996-1000) and rabbit isolated iris sphincter muscle (Hall et al., 1991, Eur. J. Pharmacol., 199, 9-14) and human NK3 receptors-mediated Ca^++ mobilization (Mochizuki et al, 1994, J. Biol. Chem., 269, 9651-9658). Guinea-pig and rabbit in-vitro functional assays provide for each compound tested a mean KB value of 3-8 separate experiments, where KB is the concentration of the individual compound required to produce a 2-fold rightward shift in the concentration-response curve of senktide. Human receptor functional assay allows the determination of the concentration of the individual compound required to reduce by 50% (IC50 values) the Ca^++ mobilization induced by the agonist NKB.

Experiment [2] has as its target T2, NK-3 receptor relative to the NK-2 receptor (Homo sapiens, UniProt P29371).
T2 construct: counter-target NK-2 receptor (TACR2, human P21452); assay not given
T2 sequence (P29371 1-465): T1 sequence (P29371 1-465)
Kind of experiment: Selectivity for the NK-3 receptor relative to the NK-2 receptor. Format: binding. Particulars: in words.

In experiment [3] the test system is NK-2 and NK-3 receptors. Kind of experiment: Combined NK-2/NK-3 antagonism. Particulars: in words.

`CC[C@H](NC(=O)c1c(OCCNC2Cc3ccccc3C2)c(-c2ccccc2)nc2ccccc12)c1ccccc1` [Example 8, (S)-N-(α-ethylbenzyl)-3-[2-(2-indanylamino)ethoxy]-2-phenylquinoline-4-carboxamide hydrochloride]: in experiment [1], the pIC50 is 8.89.
On the same count and under the same terms, next, `CC[C@H](NC(=O)c1c(OCCNC(=O)c2ccccc2)c(-c2ccccc2)nc2ccccc12)c1ccccc1` [Example 9, (S)-N-(α-ethylbenzyl)-3-(2-benzoylaminoethoxy)-2-phenylquinoline-4-carboxamide]: 8.66; `CC[C@H](NC(=O)c1c(OCCCC(=O)O)c(-c2ccccc2)nc2ccccc12)c1ccccc1` [Example 11, (S)-N-(a-ethylbenzyl)-3-(carboxypropoxy)-2-phenylquinoline-4-carboxamide]: 8.77; `CC[C@H](NC(=O)c1c(OCCNC(=O)CCC(=O)O)c(-c2ccccc2)nc2ccccc12)c1ccccc1` [Example 14, (S)-N-(a-ethylbenzyl)-3-[2-(3-carboxypropanoyl)aminoethoxy]-2-phenylquinoline-4-carboxamide]: 8.64.
Same read-out and setting: the figure for `CC[C@H](NC(=O)c1c(OCCNC(=O)Cc2ccccc2)c(-c2ccccc2)nc2ccccc12)c1ccccc1` [Example 22] is 9.22; for `CC[C@H](NC(=O)c1c(OCCNC(=O)CN)c(-c2ccccc2)nc2ccccc12)c1ccccc1` [Example 25, (S)-N-(a-ethylbenzyl)-3-(2-aminoacetylaminoethoxy)-2-phenylquinoline-4-carboxamide] it is 8.59; for `CC[C@H](NC(=O)c1c(OCCNC(=O)Cc2ccncc2)c(-c2ccccc2)nc2ccccc12)c1ccccc1` [Example 26, (S)-N-(a-ethylbenzyl)-3-[2-(4-pyridylacetyl)aminoethoxy]-2-phenylquinoline-4-carboxamide] it is 9.05.
On the same count and under the same terms, the figure for `CC[C@H](NC(=O)c1c(OCCNC(=O)Cc2ccccc2C(=O)O)c(-c2ccccc2)nc2ccccc12)c1ccccc1` [Example 29, (S)-N-(a-ethylbenzyl)-3-[2-(2'-carboxyphenylacetyl)aminoethoxy]-2-phenylquinoline-4-carboxamide] is 9.10; for `CC[C@H](NC(=O)c1c(OCCNC(=O)c2ccccc2CC(=O)O)c(-c2ccccc2)nc2ccccc12)c1ccccc1` [Example 30, (S)-N-(a-ethylbenzyl)-3-[2-(2'-carboxymethylbenzoyl)aminoethoxy]-2-phenylquinoline-4-carboxamide] it is 8.82.
Take `CC[C@H](NC(=O)c1c(OCc2ccncc2)c(-c2ccccc2)nc2ccccc12)c1ccccc1` [Example 34]: the pIC50 in experiment [1] was 8.80. The “selectivity for the NK-3 receptor relative to the NK-2 receptor” value in experiment [2] was “particularly selective for the NK-3 receptor relative to the NK-2 receptor”.
The like results for `CC[C@H](NC(=O)c1c(OCCNC(=O)c2cnccn2)c(-c2ccccc2)nc2ccccc12)c1ccccc1` [Example 36] were, in that order, 9.70 and “particularly selective for the NK-3 receptor relative to the NK-2 receptor”.
For `CC[C@H](NC(=O)c1c(OCCCNC(=O)c2cnccn2)c(-c2ccccc2)nc2ccccc12)c1ccccc1` [Example 38], in that order: 9.40 and “particularly selective for the NK-3 receptor relative to the NK-2 receptor”.
As to `CC[C@H](NC(=O)c1c(OCCNC(=O)Cc2ccccc2CNC)c(-c2ccccc2)nc2ccccc12)c1ccccc1` [Example 39], the “combined NK-2/NK-3 antagonism” value in experiment [3] is “particularly suitable as combined NK-2/NK-3 antagonists”.
Regarding `CC[C@H](NC(=O)c1c(OCCNC(=O)Cc2ccccc2CN2CCCC2)c(-c2ccccc2)nc2ccccc12)c1ccccc1` [Example 40], the pIC50 in experiment [1] is 8.89. Moreover, the “combined NK-2/NK-3 antagonism” value in experiment [3] was “particularly suitable as combined NK-2/NK-3 antagonists”.
With `CC[C@H](NC(=O)c1c(OCCNC(=O)Cc2ccccc2O)c(-c2ccccc2)nc2ccccc12)c1ccccc1` [Example 42], in experiment [1], the negative-log IC50 (pIC50) is 9.40.

The values are drawn from patent publication US6277862A, “Quinoline derivatives” (SmithKline Beecham S.p.A., priority 1995, dated 2001).
